Data reported in patent US6096529A, “Recombinant α-2,3-sialyltransferases and their uses” (priority 1997, dated 2000).

Experiments:
Format in all cases: biochemical
[1] = target: T1, purified recombinant α-2,3-sialyltransferase (Neisseria meningitidis serogroup B, UniProt P72097); experiment: Determination of kinetic constants with APTS-labelled acceptors; conditions: for kcat IKm: apparent, APTS-labelled acceptor, CMP-Neu5Ac 200 μM
T1 construct: made in house; host or cells: E. coli BMH71-18/pNST-18
T1 sequence (P72097 2-371): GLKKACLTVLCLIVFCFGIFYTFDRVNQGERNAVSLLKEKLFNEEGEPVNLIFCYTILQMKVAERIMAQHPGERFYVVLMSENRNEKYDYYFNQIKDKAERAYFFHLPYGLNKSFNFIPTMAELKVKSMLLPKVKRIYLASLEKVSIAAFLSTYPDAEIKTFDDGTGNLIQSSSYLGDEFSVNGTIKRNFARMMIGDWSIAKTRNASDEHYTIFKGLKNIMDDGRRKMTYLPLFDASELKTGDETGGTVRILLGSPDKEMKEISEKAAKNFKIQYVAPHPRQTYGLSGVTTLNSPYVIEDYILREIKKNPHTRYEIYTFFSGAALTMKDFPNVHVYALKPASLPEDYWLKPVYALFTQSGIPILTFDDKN
Method: (§1) Measurement of Sialyltransferase Activity and Survey of Oligosaccharide Acceptors--FCHASE-labelled oligosaccharides were prepared as described above, while the APTS-labelled oligosaccharides were prepared by reductive amination of reducing saccharides according to the method described by Guttman et at. (Anal. Biochem233:234 (1996)) The Gal-β-APTS acceptor was derived from labelling of lactose; the Gal-α-APTS acceptor was derived from labelling of melibiose; the N-acetyllactosamine (LacNAc) acceptor was synthesized by APTS labelling of chitobiose, followed by enzymatic modification with bovine β-Galactosyl transferase to produce the LacNAc moiety-, the Gal-α-1.4-Gal-β acceptor was enzymatically synthesized from β-Gal-APTS with the α-1,4-galactosyltransferase from N. meningitidis. All of the reductive amination products were purified by gel permeation chromatography on Toyopearl HW4OF (Sigma-Aldrich), 1.5 cm×15 cm column, using water as the eluant. It should be mentioned that all of these molecules have the terminal reducing sugar ring opened in the process of labelling. APTS-saccharides were quantitated by measuring the A455, and using an extinction coefficient of 17160 M^-1 cm^-1 . The TMR-labelled oligosaccharides were prepared as described by Zhao et al. (1994) Glycobiology 4:239-242. For the TMR labelled acceptors we used an extinction coefficient of 80,000 M^-1 cm^-1 for quantitation. The sialyltransferase activity was routinely measured using 0.5 mM FCHASE-N-acetyllactosamine as the acceptor and the assay conditions as described above. For measurement of Km, and kcat values, assays were performed with the APTS labelled saccharides at room temperature. Assays were monitored so that for all acceptor concentrations, no more than 10% conversion to product occurred. The ranges of acceptor and donor concentrations were determined empirically, then a range spanning 0.2Km, up to 5Km, was used to obtain the values. Data were examined using the Grafit™3.0 software package (Erithacus Software, London, UK).
(§2) The reaction mixtures from the FCHASE- and APTS-labelled acceptors were analyzed by capillary electrophoresis performed with a Beckman instruments (Fullerton, Calif.) P/ACE 5510 equipped with a 3 mW Argon-ion laser induced fluorescence detector, λ excitation=488 nm λ emission=520 nm. The Capillary was of bare silica 75 μ X 57 cm, with the detector at 50 cm. The capillary was conditioned before each run by washing with 0.2 M NaOH for 2 min., water for 2 min., and either 20 mM sodium phosphate buffer, pH 7.4 or sodium tetraborate, pH 9.3, 2 min. Samples were introduced by pressure injection for 2-5 seconds, and the separation was performed at 18 kV, 75 μA. Peak integration was performed with the Beckman PACE-Station software (version 1).

[2] = target: T2, N. meningitidis α-2,3-sialyltransferase (Neisseria meningitidis serogroup B, UniProt P72097); experiment: Coupled sialylation of FCHASE-LacNAc with Neu5Ac, Neu5Pr or Neu5Gc and CMP-Neu5Ac synthetase; design: made in house; host or cells: E. coli BMH71-18/pNST-18; conditions: for time to complete conversion of the acceptor (FCHASE-LacNAc): coupled reaction with CMP-Neu5Ac synthetase; for use as alternate donor, rate: compared with Neu5Ac
Method: Sialylation of FCHASE-thio-N-acetyllactosamine with N-acetyl-, N-propionyl and N-glycolyl-Neuraminic Acid--The 50 μL reaction mixtures included […] acceptor, and 2 mM of either Neu5Ac, Neu5Gc or Neu5Pr, in 100 mM Tris pH 7.5. 0.2 mM DTT, 10 mM MgCl2, […], with 50 mU inorganic pyrophosphatase (Sigma). 47 mU CMP-Neu5Ac synthetase, 5 mU purified α-2,3-sialyl-transferase. […] The masses of the sialylated products were measured in the negative ion mode on a VG Quattro triple quadrupole mass spectrometer (Fisons Instruments).
Target sequence in this assay (P72097 2-371): as above

[3] = target: T1, purified recombinant α-2,3-sialyltransferase; experiment: Survey of oligosaccharide acceptors (qualitative, CE or TLC)
Method: Measurement of Sialyltransferase Activity and Survey of Oligosaccharide Acceptors--FCHASE-labelled oligosaccharides were prepared as described above, while the APTS-labelled oligosaccharides were prepared by reductive amination of reducing saccharides according to the method described by Guttman et at. […] APTS-saccharides were quantitated by measuring the A455, and using an extinction coefficient of 17160 M^-1 cm^-1 . […] For the TMR labelled acceptors we used an extinction coefficient of 80,000 M^-1 cm^-1 for quantitation. The sialyltransferase activity was routinely measured using 0.5 mM FCHASE-N-acetyllactosamine as the acceptor and the assay conditions as described above. […] Assays were monitored so that for all acceptor concentrations, no more than 10% conversion to product occurred. The ranges of acceptor and donor concentrations were determined empirically, then a range spanning 0.2Km, up to 5Km, was used to obtain the values. […]
The reaction mixtures from the FCHASE- and APTS-labelled acceptors were analyzed by capillary electrophoresis performed with a Beckman instruments (Fullerton, Calif.) P/ACE 5510 equipped with a 3 mW Argon-ion laser induced fluorescence detector, λ excitation=488 nm λ emission=520 nm. […]

[4] = target: T2, N. meningitidis α-2,3-sialyltransferase; design: b112 rows possibly recombinant MC58 lst (pNST-01) in E. coli extracts; conditions: for ratios of activity as acceptor: synthetic saccharide acceptors, relative to FCHASE-aminophenyl-LacNAc; for activity stimulated by addition: 10 mM, enzyme from N. meningitidis extracts
Method: Measurement of Sialyltransfrase Activity--The sialyltransferase activity from N. meningitidis MC58L3, 406Y L3 and M982B L7, and the E. coli carrying pNST plasmids was measured in toluene treated cells or cell free extracts prepared as described previously (Wakarchuk, et al. (1996) J. Biol. Chem. in Press) acceptors were derived from aminophenylglycosides reacted with 6(5-fluorescein-carboxamnido)-hexanoic acid succimidyl ester (FCHASE) and were prepared as previously described (Wakarchuk, et al. (1996) J. Biol. Chem. in Press). Reactions for the enzyme were performed at 37° C. in 20 μl of MES buffer, 50 mM pH 6.0, 10 mM MnCl2, with 0.2 or 1.0 mM labeled acceptor, 0.2 mM CMP-Neu5Ac donor and various amounts of enzyme, either from crude bacterial extracts, or extracts of recombinant E. coli with the cloned gene. The recombinant enzymes were assayed for 10-120 minutes, while extracts from N. meningitidis were incubated 1-15 h. The reactions were terminated by diluting the reaction 1:100 with 10 mM NaOH. These samples were then diluted appropriately in water prior to analysis by capillary electrophoresis.
Capillary electrophoresis (CE) and was performed with a Beckman (Fullerton, Calif.) P/ACE 5510 equipped with a 3 mW Argon-ion laser induced fluorescence detector, λ excitation=488 nm, λ emission=520 nm. The capillary was bare silica 75 μ X 47 cm, with the detector at 40 cm. The capillary was conditioned before each run by washing with 0.2 M NaOH for 2 min., water for 2 min., and 25 mM sodium tetraborate pH 9.4 for 2 min. Samples were introduced by pressure injection for 2-5 seconds, and the separation was performed at 15 kV, 75 μA. Peak integration was performed with the Beckman System Gold (version 8.1) software.
Target sequence in this assay (P72097 whole entry Q29H/E40D/N94K/T242A/K273N): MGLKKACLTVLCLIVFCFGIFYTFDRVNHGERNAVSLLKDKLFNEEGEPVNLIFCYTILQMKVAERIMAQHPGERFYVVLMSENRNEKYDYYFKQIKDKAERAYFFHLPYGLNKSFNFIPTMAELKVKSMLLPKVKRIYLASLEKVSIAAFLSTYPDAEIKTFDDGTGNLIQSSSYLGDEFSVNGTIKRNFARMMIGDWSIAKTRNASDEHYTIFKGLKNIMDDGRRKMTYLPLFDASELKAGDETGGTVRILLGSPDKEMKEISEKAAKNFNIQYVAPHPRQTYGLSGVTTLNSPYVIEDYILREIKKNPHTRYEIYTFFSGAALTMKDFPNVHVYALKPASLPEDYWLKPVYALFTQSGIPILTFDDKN

[5] = target: T1, purified recombinant α-2,3-sialyltransferase; experiment: Enzymatic properties of the purified recombinant α-2,3-sialyltransferase (standard assay); conditions: for inhibition at 1000 µM: 1 mM, standard assay; for activity stimulated by presence: 20 mM
Method: as §1, §2

For `CC(=O)N[C@H]1[C@H](O[C@@H]([C@H](O)[C@H](CNc2cc(S(=O)(=O)O)c3ccc4c(S(=O)(=O)O)cc(S(=O)(=O)O)c5ccc2c3c54)NC(C)=O)[C@H](O)CO)O[C@H](CO)[C@@H](O[C@@H]2O[C@H](CO)[C@H](O)[C@H](O)[C@H]2O)[C@@H]1O` [LacNAc, Gal-β-(1→4)-β-GlcNAc-β-GlcNAc*], the “kcat IKm” value [1] was 1750 M⁻¹ s⁻¹ and the “increase of apparent Kcat/Km” value ([1]; relative to the terminal Gal-β monosaccharide acceptor) was 5 fold.

In the case of `CC(=O)N[C@H]1[C@H]([C@H](O)[C@H](O)CO)O[C@](OP(=O)(O)OC[C@H]2O[C@@H](n3ccc(N)nc3=O)[C@H](O)[C@@H]2O)(C(=O)O)C[C@@H]1O` [CMP-Neu5Ac], the substrate inhibition ([1]; as high as 1 mM CMP-Neu5Ac) is reported as “No significant substrate inhibition”.

For `CC(=O)N[C@H]1[C@H]([C@H](O)[C@H](O)CO)OC(O)(C(=O)O)C[C@@H]1O` (some centres unmarked) [Neu5Ac, 5-N-acetylneuraminic acid], the “time to complete conversion of the acceptor (FCHASE-LacNAc)” value [2] was 60 min.

For `O=S(=O)(O)c1cc(NC[C@H](O)[C@@H](O)[C@H](O[C@@H]2O[C@H](CO)[C@H](O[C@H]3O[C@H](CO)[C@H](O)[C@H](O)[C@H]3O)[C@H](O)[C@H]2O)[C@H](O)CO)c2ccc3c(S(=O)(=O)O)cc(S(=O)(=O)O)c4ccc1c2c34` [P^k, Gal-α-(1→4)-Gal-(1→4)-β-Glc*], the “kcat IKm” value [1] was 93.3 M⁻¹ s⁻¹.

In the case of `O=S(=O)(O)c1cc(NC[C@H](O)[C@@H](O)[C@H](O)[C@H](O)CO[C@H]2O[C@H](CO)[C@H](O)[C@H](O)[C@H]2O)c2ccc3c(S(=O)(=O)O)cc(S(=O)(=O)O)c4ccc1c2c34` [Gal-α-(1→6)-Gal, Gal-α-(1→6)-Gal*], the “kcat IKm” value [1] is reported as 517 M⁻¹ s⁻¹.

`CCC(=O)N[C@H]1[C@H]([C@H](O)[C@H](O)CO)OC(O)(C(=O)O)C[C@@H]1O` (some centres unmarked) [Neu5Pr, N-propionyl-Neuraminic Acid] was tested, and the “use as alternate donor, rate” value [2] was “rates lower than with Neu5Ac” and the “time to complete conversion of the acceptor (FCHASE-LacNAc)” value [2] was 90 min.

With `CC(=O)N[C@@H]1[C@@H](O)[C@H](O[C@@H]2O[C@H](CO)[C@H](O)[C@H](O)[C@H]2O)[C@@H](CO)O[C@H]1SCCCCCCNC(=O)CCCCCNC(=O)c1ccc(-c2c3ccc(=O)cc-3oc3cc(O)ccc23)c(C(=O)O)c1` [Gal-β-(1→4)-GlcNAc-β S AH-FCHASE] the “product formation with sulfur as the linkage atom” value [3] was “product formation”.

For Triton X-100, the “effect of detergents on the enzyme” value ([4]; Triton X-100 up to 0.2%) was “exception”.

`O=C(CCCCCNC(=O)c1ccc(-c2c3ccc(=O)cc-3oc3cc(O)ccc23)c(C(=O)O)c1)NCCCCCCS[C@@H]1O[C@H](CO)[C@H](O)[C@H](O)[C@H]1O` [Gal-β S AH-FCHASE] was tested, and the “product formation with sulfur as the linkage atom” value [3] was “product formation”.

`O[C@H](CS)[C@H](O)CS` (racemic) [DTT, dithiothreitol] was tested, and the “effect on the activity” value ([5]; 1-20 mM range) was “no effect”.

`Nc1ccn([C@@H]2O[C@H](COP(=O)(O)OP(=O)(O)O)[C@@H](O)[C@H]2O)c(=O)n1` [CDP] was tested, and the inhibition at 1000 µM [5] was 40%.

`O=C(CCCCCNC(=O)c1ccc(-c2c3ccc(=O)cc-3oc3cc(O)ccc23)c(C(=O)O)c1)Nc1ccc(OC2O[C@H](CO)[C@H](O)[C@H](O)[C@H]2O)cc1` (some centres unmarked) [FCHASE-aminophenyl-Gal] was tested, and the “ratios of activity as acceptor” value [4] was 0.03.

`O=S(=O)(O)c1cc(NC[C@H](O)[C@@H](O)[C@H](O[C@@H]2O[C@H](CO)[C@H](O)[C@H](O)[C@H]2O)[C@H](O)CO)c2ccc3c(S(=O)(=O)O)cc(S(=O)(=O)O)c4ccc1c2c34` [Gal-β-(1→4)-Glc, Gal-β-(1→4)-Glc*] was tested, and the “kcat IKm” value [1] was 367 M⁻¹ s⁻¹.

`O=C(O)CN(CCN(CC(=O)O)CC(=O)O)CC(=O)O` [EDTA] was tested, and the “activity in the presence of EDTA” value ([4]; 5 mM EDTA) was “active” and the “activity in the presence of EDTA” value ([5]; 5 mM EDTA, purified enzyme) was “still active”.

With `O=C(CCCCCNC(=O)c1ccc(-c2c3ccc(=O)cc-3oc3cc(O)ccc23)c(C(=O)O)c1)Nc1ccc(O[C@@H]2O[C@H](CO)[C@@H](O[C@@H]3O[C@H](CO)[C@H](O)[C@H](O)[C@H]3O)[C@H](O)[C@H]2O)cc1` [FCHASE-aminophenyl-Lac] the “ratios of activity as acceptor” value [4] was 0.29.

`CC(=O)N[C@H]1[C@H](Oc2ccc(NC(=O)CCCCCNC(=O)c3ccc(-c4c5ccc(=O)cc-5oc5cc(O)ccc45)c(C(=O)O)c3)cc2)O[C@H](CO)[C@@H](O[C@@H]2O[C@H](CO)[C@H](O)[C@H](O)[C@H]2O)[C@@H]1O` [FCHASE-aminophenyl-LacNAc] was tested, and the “ratios of activity as acceptor” value [4] was 1.

`Nc1ccn([C@@H]2O[C@H](COP(=O)(O)O)[C@@H](O)[C@H]2O)c(=O)n1` [CMP] was tested, and the inhibition at 1000 µM [5] was 80%.

In the case of `[Cl][Mn][Cl]` [MnCl2], the “activity stimulated by addition” value [4] is reported as 3 fold and the “activity stimulated by presence” value ([5]; purified enzyme) is reported as 4 fold.

For `[Cl-].[Cl-].[Mg+2]` [MgCl2], the “activity stimulated by addition” value [4] was 2 fold and the “activity stimulated by presence” value ([5]; purified enzyme) was 3 fold.

`O=C(CO)N[C@H]1[C@H]([C@H](O)[C@H](O)CO)OC(O)(C(=O)O)C[C@@H]1O` (some centres unmarked) [Neu5Gc, 5-N-glcolylneuraminic acid] was tested, and the “conversion of the acceptor” value ([2]; after 120 min of incubation) was “above 90%” and the “use as alternate donor, rate” value [2] was “rates lower than with Neu5Ac”.
